System: Plasmodium chabaudi
Assay: P. chabaudi infection (10^5 pRBC i.v.) in A/J mice, continuous daily cysteamine treatment, blood parasitemia
Assay type: in vivo
Experimental: A/J and C57BL/6 (B6) mice were purchased from the Jackson Laboratories (Bar Harbor, Me.) and were housed at McGill University according to the guidelines of the Canadian Council on Animal Care. An LDH virus-free isolate of P. chabaudi AS was maintained by weekly passage in A/J mice. […] Following infection, the percentage of pRBC was determined daily on thin blood smears stained with Dif-Quik™ (Dade Behring, Newark, Del.), as described (Fortin A, et al. (2001) Proc Natl Acad Sci USA 98: 10793-10798).
Cysteamine hydrochloride (Sigma, Burlington ON) was prepared in PBS. […]
To gain more insight into the anti-malarial effect of cysteamine (Cys) in vivo, the pharmacokinetic characteristics (plasma level) of Cys administered through the sub-cutaneous (s.c.) and intra-peritoneal (i.p) routes was compared. […] Parasitemia was monitored on thin blood smears at days 5, 6 and 7 following infection (FIG. 1B). […]
It was next determined whether Cys at equivalent dosing to that used in the clinical treatment of nephropathic cystinosis in humans has an effect on the course and severity of P. chabaudi infection in mice. […] The efficacy of different regimens of 50 mg/kg Cys s.c. (number of injections, interval between injections) on replication of P. chabaudi in vivo was evaluated. […]

NCCS [Cysteamine]
reduction in parasitemia relative to saline injected controls (120 mg/kg Cys daily, either s.c. or i.p., day 5 and 6, p<0.01): 50% | reduction of blood parasitemia (Cys s.c. daily, all regimens: 1×150 mg/kg, 3×50 or 4×50 mg/kg at 2 hr, 3×50 mg/kg at 1 hr intervals (strongest), days 5, 6, 7): 40-67%

Source: patent US9278086B2, “Combination therapy and uses thereof for treatment and prevention of parasitic infection and disease” (The Royal Institution for the Advancement of …, priority 2010, dated 2016)
